Tested on: transcript levels in tissues (GH/IGF and glucagon/insulin axes, SSTR signalling)
Type: in vivo, cynomolgus monkeys
[1] = RNA expression fold change, pituitary

cyclo[4-(NH2—C2H4—NH—CO—O)Pro-Phg-DTrp-Lys-Tyr(4-Bzl)-Phe] [SOM230]
Core-binding factor, runt domain, α subunit 2; translocated to, 1; cyclin D-related ↑ [1]: D-related ↑ x3
Cyclin D3 ↑ [1]: Cyclin D3 ↑ x2.5
Cyclin F ↓ [1]: Cyclin F ↓ x2
Dual specificity phosphatase 8 ↓ [1]: phosphatase 8 ↓ x3
EGFRBP 2 ↓ [1]: EGFRBP 2 ↓ x1.5
FGFR 2 ↓ [1]: FGFR 2 ↓ x2
Fms-related tyrosine kinase 1 (VEGF/vascular permeability factor receptor) ↓ [1]: receptor) ↓ x1.5
Forkhead box H1 ↑ [1]: Forkhead box H1↑ x2
Forkhead box O3A ↓ [1]: ↓ x1.5
G protein-coupled receptor, family C, group 5, member B ↑ [1]: 5, member B ↑ x2
G-protein coupled receptor 9 ↑ [1]: receptor 9 ↑ x2.5
G-protein coupled receptor 49 ↓ [1]: receptor 49 ↓ x2
GABA-B R 1, isoform a precursor ↑ [1]: ↑ x1.5
GFR bound protein 10 ↑ [1]: ↑ x1.5
GLUR 2, precursor ↑ [1]: x1.5
GTP-binding protein 11 ↑ [1]: ↑ x2.5
GTP-binding protein (G protein), q polypeptide ↓ [1]: ↓ x2.5
GTP-binding protein like-1 ↓ [1]: like-1 ↓ x3
Gastrin receptor ↓ [1]: Gastrin receptor ↓ x2
Glucagon receptor ↑ [1]: Glucagon receptor ↑ x7
IFN stimulated gene ↑ [1]: ↑ x3.5
IFNR2 (α, β and ω) ↓ [1]: ↓ x2.5
IFNγ-inducible protein 30 (IP30) ↑ [1]: 30 (IP30) ↑ x1.5
IGF-2 ↓ [1]: IGF-2 ↓ x1.5
IGFBP, acid labile subunit ↑ [1]: subunit ↑ x3.5
IP3 receptor, type 1 ↑ [1]: ↑ x1.5
IP-4-phosphatase, type 1, isoform b ↓ [1]: 1, isoform b ↓ x2
JAK 1 ↑ [1]: JAK 1 ↑ x2
K+ channel, subfamily K, member 3 (TASK) ↓ [1]: ↓ x4
K+ voltage-gated channel, Shab-related subfamily, member 1 ↓ [1]: subfamily, member 1 ↓ x2
MAPKKK5 ↑ [1]: MAPKKK5 ↑ x2
Neuroblastoma-amplified protein ↑ [1]: ↑ x1.5
PDGFβ ↓ [1]: PDGFβ ↓ x2
PI transfer protein, β ↓ [1]: ↓ x2.5
PI-3-kinase, catalytic, α polypeptide ↓ [1]: polypeptide ↓ x3
PI-3-kinase, catalytic, δ polypeptide ↓ [1]: ↓ x2
PKC inhibitor ↑ [1]: PKC inhibitor ↑ x2
PLCγ 1 ↓ [1]: PLCγ 1 ↓ x1.5
PP 1, regulatory (inhibitor) subunit 5 ↑ [1]: ↑ x3.5
PTP, receptor type, T ↑ [1]: ↑ x2
Phosphatase and tensin homolog (mutated in multiple advanced cancers 1) ↓ [1]: 1) ↓ x3.5
Programmed cell death 6 ↑ [1]: ↑ x1.5
Putative Ca++ transporting ATPase ↑ [1]: transporting ATPase ↑ x2
RAB 5C, member RAS oncogene family ↑ [1]: oncogene family ↑ x3
Rab3 GTPase-activating protein, non catalytic subunit ↓ [1]: subunit ↓ x2
Rab geranylgeranyltransferase, α subunit ↓ [1]: α subunit ↓ x1.5
Rab geranyltransferase, β subunit ↑ [1]: β subunit ↑ x2
Receptor (calcitonin) activity modifying protein 2 precursor ↑ [1]: 2 precursor ↑ x3.5
Receptor tyrosine kinase-like orphan receptor 2 ↑ [1]: receptor 2 ↑ x2
Regulator of G-protein signalling 9 ↑ [1]: ↑ x2
S-phase response (cyclin-related) ↑ [1]: (cyclin-related) ↑ x2
SHB adaptor protein (a Src homology 2 protein) ↓ [1]: ↓ x2.5
SSTR3 ↑ [1]: SSTR3 ↑ x3
STAT 1, 91kδ ↓ [1]: STAT 1, 91kδ ↓ x2
Soluble adenylyl cyclase ↓ [1]: ↓ x2
TNFR subfamily, member 14; herpesvirus entry mediator ↓ [1]: entry mediator ↓ x2.5
TNFR-associated factor 2 ↓ [1]: 2 ↓ x4
Thrombospondin-p50 ↓ [1]: ↓ x2
Thyroid transcription factor 1 ↑ [1]: factor 1 ↑ x2.5
VEGF B ↑ [1]: VEGF B ↑ x1.5
Extra spindle poles, S. cerevisiae, homolog of ↓ (cynomolgus monkey, in vivo): ↓ x2.5
Acetylserotonin O-methyl transferase-like expression ↓ (fold change) (kidney): transferase-like ↓ x3
Adrenomedullin expression ↑ (fold change) (kidney): x1.5
Angiotensin receptor 1B expression ↓ (fold change) (kidney): 1B ↓ x1.5
Arginine vasopressin (neurophysin II, antidiuretic hormone, diabete insipidus, neurohypophyseal) expression ↑ (fold change) (kidney): ↑ x2
CDC37 (cell division cycle 37, S. cerevisiae, homolog) expression ↑ (fold change) (kidney): homolog) ↑ x1.5
CSF-1 receptor, formerly Mc Donough feline sarcoma viral (v-fms) oncogene homolog expression ↑ (fold change) (kidney): homolog ↑ x2.5
Ca++ channel, voltage-dependent, α 1H subunit expression ↑ (fold change) (kidney): α 1H subunit ↑ x2
Calcium/calmodulin-dependent protein kinase kinase 2, β expression ↑ (fold change) (kidney): ↑ x1.5
Calmodulin 3 (phosphorylase kinase, δ) expression ↓ (fold change) (kidney): kinase, δ) ↓ x1.5
Cdk 5, regulatory subunit 2 (p39) expression ↑ (fold change) (kidney): ↑ x1.5
Cdki 1A (p21, Cip 1) expression ↑ (fold change) (kidney): Cip 1) ↑ x5
Corticotropin releasing hormone receptor type 2 beta isoform expression ↑ (fold change) (kidney): isoform ↑ x1.5
Death effector domain-containing expression ↓ (fold change) (kidney): ↓ x3.5
Dopamine receptor D2 expression ↑ (fold change) (kidney): receptor D2 ↑ x4.5
Fas/Apo-1/CD95 expression ↑ (fold change) (kidney): ↑ x1.5
GABA (A) receptor, γ2 precursor expression ↑ (fold change) (kidney): precursor ↑ x2
GFR-bound protein 7 expression ↑ (fold change) (kidney): protein 7 ↑ x2
GFR-bound protein 14 expression ↑ (fold change) (kidney): protein 14 ↑ x2
Gene expression (AvgDiff): IGF-1 (kidney): 25
Gene expression (AvgDiff): IGF-2 (kidney): 49
Gene expression (AvgDiff): IGFBP2 (kidney): 563
Gene expression (AvgDiff): IR (kidney): 196
Gene expression (AvgDiff): SSTR2 (kidney): 126
Gene expression (AvgDiff): SSTR3 (kidney): 82
Glucocorticoid receptor DNA binding factor 1 expression ↓ (fold change) (kidney): ↓ x4.5
Glutamate receptor, metabotropic 2 precursor expression ↓ (fold change) (kidney): precursor ↓ x3
Growth arrest-specific 6 expression ↑ (fold change) (kidney): specific 6 ↑ x1.5
IGF-1 expression ↓ (fold change) (kidney): IGF-1 ↓ x2.5
IGF-2 expression ↓ (fold change) (kidney): IGF-2 ↓ x2
IGFBP2 expression ↑ (fold change) (kidney): IGFBP2 ↑ x1.5
IL-7 R precursor expression ↑ (fold change) (kidney): ↑ x2
IRF5 expression ↑ (fold change) (kidney): IRF5 ↑ x2
Insulin receptor expression ↓ (fold change) (kidney): ↓ x3
K+ voltage-gated channel, Shaw-related subfamily, member 3 expression ↑ (fold change) (kidney): member 3 ↑ x2.5
LIF (cholinergic differentiation factor) expression ↑ (fold change) (kidney): factor) ↑ x2
Na+ channel, nonvoltage-gated 1, β (Liddle syndrome) expression ↓ (fold change) (kidney): ↓ x2
Natriuretic peptide receptor A/guanylate cyclase A (atrionatriuretic peptide receptor A) expression ↑ (fold change) (kidney): ↑ x2
Opioid receptor, δ1 expression ↑ (fold change) (kidney): δ1 ↑ x2.5
PDGFR, α polypeptide expression ↑ (fold change) (kidney): polypeptide ↑ x1.5
PG-endoperoxide synthase 1 (prostaglandin G/H synthase and cyclooxygenase) expression ↓ (fold change) (kidney): x3.5
PI-3-kinase, catalytic, α polypeptide expression ↓ (fold change) (kidney): polypeptide ↓ x3
PP 3 (formerly 2B), catalytic subunit, β isoform (calcineurin A β) expression ↓ (fold change) (kidney): ↓ x2
Putative chemokine receptor; GTP-binding protein expression ↑ (fold change) (kidney): ↑ x2
SSTR2 expression ↑ (fold change) (kidney): SSTR 2↑ x2
SSTR 3 expression ↑ (fold change) (kidney): SSTR 3↑ x3
Solute carrier family 6 (neurotransmitter transporter, creatin), member 8 expression ↓ (fold change) (kidney): member 8 ↓ x3
Solute carrier family 9 (Na+/H+ exchanger) isoform 3 regulatory factor 1 expression ↑ (fold change) (kidney): ↑ x2
TGF, β1 expression ↑ (fold change) (kidney): TGF, β1 ↑ x1.5
THR binding protein expression ↑ (fold change) (kidney): protein ↑x1.5
THR, α (avian erythroblastic leukemia viral (v-erb-a) oncogene homolog) expression ↑ (fold change) (kidney): homolog) ↑x1.5
THR-associated protein, 240kδ subunit expression ↓ (fold change) (kidney): subunit ↓ x1.5
TNF, α-induced protein 3 expression ↓ (fold change) (kidney): ↓ x1.5
TNFR superfamily, member 12 expression ↑ (fold change) (kidney): member 12 ↑ x2
VWF precursor expression ↑ (fold change) (kidney): x2
Vasopressin-activated calcium-mobilizing receptor-1 expression ↓ (fold change) (kidney): 1 ↓ x2
δ sleep inducing peptide, immunoreactor expression ↑ (fold change) (kidney): x2.5
1-PI-4-phosphate 5-kinase isoform C expression ↓ (fold change) (liver): ↓ x2
5-hydroxytrypt amine (serotonine) receptor 6 expression ↑ (fold change) (liver): receptor 6 ↑ x2.5

From patent publication US20130040882A1, “USE OF FIBROBLAST GROWTH FACTOR FRAGMENTS” (NOVARTIS AG, priority 2003, published 2013)
